{"source": "patent US7279332B2", "about": "“Method of isolating ependymal neural stem cells” (NeuroNova AB, priority 1998, dated 2007)", "tested_on": "nigral dopamine neurons (substantia nigra pars compact)", "test": "Quantitative in vivo neurogenesis in substantia nigra pars compact after DiI labeling of ependymal cells", "conditions": "mice", "procedure": "Adult rats and mice were given DiI through intraventricular injections as described in the example above. At various time intervals after the injection (hours-months), the animals were transcardially perfused with 15 ml 0.9% saline, followed by 50 ml of +4° C. 4% (w/v) paraformaldehyde and 0.4% (v/v) picric acid in 0.1 M phosphate buffered saline, pH 6.9, during 5 min. After brain removal, the tissue was fixed for an additional 90 minutes in the same fixative and cryoprotected in buffered sucrose (10% for 24 h, 30% for 2 days) at +4° C. The entire midbrain was cut with a cryostat using a systematic, uniform random sampling design, where 40 μm thick frontal sections were taken to six parallel rostrocaudal series. One series of sections was kept in 0.1 M PBS and the fluorescent signal was immediately converted to a permanent diaminobenzidine (DAB) signal using a modified previously described protocol (Singleton et al., J. Neurosci. Meth. 64:47). […] The photoconversion process was carefully evaluated and when all the fluorescent signal in substantia nigra was visualized with the brown DAB product, the sections were immunohistochemically labeled with a marker (Vector SG, Vector) for dopamine neurons (tyrosine hydroxylase) utilizing the avidin-biotin-immunoperoxidase system (Vector) (Janson et al., Neuroscience 57:931). The five parallel series of sections were instead stored in 30% sucrose in 0.1 M PBS at −20° C. until they were processed for immunohistochemistry and analyzed in a confocal laser scanning microscope utilizing several markers for glia and neurons (with appropriate controls) to determine the neuronal phenotype of the DiI labeled cells in substantia nigra pars compact (FIG. 8).\nQuantitative estimates of the total number of TH immunoreactive cell bodies counterstained with cresyl violet (TH/CV+ neurons) as well as TH immunoreactive cell bodies also containing DiI label were made in the bilateral SNc. Neuronal counts were determined using coded sections and a stereological technique, the optical fractionator (Janson et al., Neuroscience 57:931). […]"}
{"smiles": "CN1CC=C(c2ccccc2)CC1", "note": "[MPTP, 1-methyl-4-phenyl-1,2,3,6-tetrahydropyridine]", "values": [{"measurement": "number of TH+/DiI+ nigral neurons", "setting": "MPTP 40 mg/kg sc. vs vehicle", "result": "higher numbers of TH+/DiI+ nigral neurons"}, {"measurement": "migratory streams of DiI+ cells in the midbrain", "setting": "MPTP 40 mg/kg sc. vs vehicle, qualitative appearance", "result": "appeared more pronounced"}, {"measurement": "increase in number of new neurons generated each week in substantia nigra, compared to animals treated with vehicle alone", "setting": "MPTP 40 mg/kg sc., regression curve (r^2=0.744) of counts at a few hours to 2 months", "result": 24, "unit": "%"}]}
